Experimental data reported in patent US12292380B2, “Integrated microfluidic device for capture and spectroscopic characterization of live cells under various treatment conditions” (CORNELL UNIVERSITY, priority 2018, dated 2025).

How the values were obtained:
[1] = tested on: A431 cells; experiment: MEIRS measurement of the response of A431 cells to epidermal growth factor, PCA of reflectance spectra; assay type: cell-based; conditions: 40 nM EGF injected at t=240 min, time resolution 1 min
Experimental: (§1) The following method is used for monitoring a drug's effect of the cells. The method can be implemented using the same or similar detection unit 100, detection device 300, and detection system 10, as described above and shown in FIGS. 1 and 2-12. First, the metasurface 102 is assembled with the microfluidic chamber 302, and the cells are seeded on the metasurface 102 in culture media. The cells are then incubated until they are well-adhered on the metasurface 102. The metasurface 102 (with cells) is then transferred to a FTIR microscope 20 for continuous collection of IR spectra. […]
Referring briefly to FIG. 25, there are shown graphs of the resulting PCA scores/loadings obtained from A431 cells with the addition of epidermal growth factor (EGF). […] Specifically, 40 nM EGF was injected to the microfluidic measurement chamber 302 at t=240 min., while continuously monitored with time resolution of Δt=1 min. The measured reflectance spectra were analyzed using PCA. […] Although the biological interpretation of such signal is still not clear, it is hypothesized that the measured response corresponds to at least two processes in the cell, likely related to the cells' cytoskeletal reorganization in response of EGF.

[2] = tested on: A431 cells; experiment: MEIRS monitoring of trypsinization (detachment of adherent cells from the metasurface), PCA of reflection spectra; assay type: cell-based; conditions: 0.025% trypsin at t=66 min, between t=66 min and t=100 min, time resolution 1 min
Experimental: as §1, with “spectra. Background spectra of the cells are collected for some time, before the drug to be tested is introduced to the cells via a microfluidic pump (such as a syringe pump 20 like that shown in FIG. 12).” for “spectra.”
Referring briefly to FIG. 24, there are shown contrast microscopy images of A431 cells on the metasurface 102 and graphs of the resulting PCA scores/loadings obtained from their spectra. The most robust adhesion-related effects, such as trypsinization (i.e., the detachment of adherent cells from the metasurface 102 by application of trypsin, a proteolytic enzyme that breaks down adhesion proteins), can be easily detected using MEIRS. […] Reflection spectra were analyzed using principal components analysis (PCA). […]

Row | Substance | PC1 score response to EGF [1] | time for PC2 score to recover to the baseline level before the EGF injection [1] | time evolution of the PC1 score (cell detachment from the metasurface) [2]
1 | epidermal growth factor (NSDSECPLSHDGYCLHDGVCMYIEALDKYACNCVVGYIGERCQYRDLKWWELR; Epidermal growth factor; UniProt P01133 971-1023, looked up) [EGF, epidermal growth factor (EGF)] | permanent change to the cell | about 200 min | –
2 | trypsin | – | – | rapid detachment of the cells
